Assay: Particle size distribution of micronized cinacalcet hydrochloride by Malvern Mastersizer
Assay type: physicochemical
Settings: particle size after jet milling
Procedure: Micronization of cinacalcet hydrochloride was carried out by Jet Milling. Particle size of micronized cinacalcet hydrochloride was measured with Malvern Mastersizer.

| D10 [μm] | D50 [μm] | D90 [μm] | Compound |
| --- | --- | --- | --- |
| 4.06 | 9.58 | 18.8 | C[C@@H](NCCCc1cccc(C(F)(F)F)c1)c1cccc2ccccc12.Cl [Batch No 60002, N-[1-(R)-(−)-(1-naphthyl)ethyl]-3-[3(trifluoromethyl)phenyl]-1-aminopropane hydrochloride] |
| 2.66 | 6.55 | 13.4 | C[C@@H](NCCCc1cccc(C(F)(F)F)c1)c1cccc2ccccc12.Cl [Batch No 70001, N-[1-(R)-(−)-(1-naphthyl)ethyl]-3-[3(trifluoromethyl)phenyl]-1-aminopropane hydrochloride] |
| 2.35 | 6.81 | 15.4 | C[C@@H](NCCCc1cccc(C(F)(F)F)c1)c1cccc2ccccc12.Cl [Batch No 70002, N-[1-(R)-(−)-(1-naphthyl)ethyl]-3-[3(trifluoromethyl)phenyl]-1-aminopropane hydrochloride] |
| ≤ 5 | ≤ 10 | ≤ 20 | C[C@@H](NCCCc1cccc(C(F)(F)F)c1)c1cccc2ccccc12.Cl [Micronized cinacalcet hydrochloride, N-[1-(R)-(−)-(1-naphthyl)ethyl]-3-[3(trifluoromethyl)phenyl]-1-aminopropane hydrochloride] |

From patent US11331283B2, “Pharmaceutical compositions comprising cinacalcet hydrochloride and one or more binders” (UNICHEM LABORATORIES LTD, priority 2017, dated 2022)
